The source of these data is patent US9833497B2, “Human originated EGF domain proteins and use of the same” (CHENGDU SOURCEBIO LIMITED-LIABILITY COMPANY, priority 2013, dated 2017).

The term MIC denotes the lowest concentration found to suppress growth. Low readings indicate a more susceptible organism, high ones a less susceptible organism.

Common to all, as to assay type: cell-based
In one assay the test system is Proteus mirabilis. Briefly: MIC against Gram-negative bacteria: Proteus mirabilis. The note with it: 5×10^5 CFU/mL. The method in brief:
(§1)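 Purified recombinant human EGF domain proteins are tested by broth dilution in LB against a 5×10^5 CFU/mL inoculum, with two-fold serial dilutions run in triplicate. Plates are incubated at 37° C with shaking, and the MIC is read as the lowest protein concentration without growth.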

For another assay, the system named is E. coli BL21. Briefly: MIC against Gram-negative bacteria: E. coli BL21. The conditions noted are these: 5×10^5 CFU/mL. In outline: as §1
Another assay has as its system Enterobacter cloacae. As to the kind of experiment: MIC against Gram-negative bacteria: Enterobacter cloacae. The note with it: 5×10^5 CFU/mL. The method in brief:
as §1

The subject of another assay is Pseudomonas aeruginosa. Briefly: MIC against Gram-negative bacteria: Pseudomonas aeruginosa. The conditions noted are these: 5×10^5 CFU/mL. The method in brief: as §1
The next assay relates to Moraxella catarrhalis. As to the kind of experiment: MIC against Gram-negative bacteria: Moraxella catarrhalis. The conditions noted are these: 5×10^5 CFU/mL. In outline: as §1
A further assay concerns Proteus vulgaris. Briefly: MIC against Gram-negative bacteria: Proteus vulgaris. The note with it: 5×10^5 CFU/mL. The method in brief:
as §1

The subject of the next assay is Klebsiella pneumonia. As to the kind of experiment: MIC against Gram-negative bacteria: Klebsiella pneumonia. The note with it: 5×10^5 CFU/mL. In outline: as §1
Another assay deals with Serratia marcescens. As to the kind of experiment: MIC against Gram-negative bacteria: Serratia marcescens. The note with it: 5×10^5 CFU/mL. In outline: as §1
The subject of the next assay is Aeromonas hydrophila. Briefly: MIC against Gram-negative bacteria: Aeromonas hydrophila. The note with it: 5×10^5 CFU/mL. In outline: as §1
The next assay has as its system E. coli DH5α. Briefly: Antibacterial activity: MIC and growth curve against E. coli DH5α in 96-well plate. The note with it: minimal inhibitory concentration against E. coli DH5α; 96-well plate, 5×10^5 CFU/mL, 37° C., judged after 8 h. In outline:
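Log-phase bacteria (OD600 ~0.5) resuspended in LB at 5×10^5 CFU/mL, exposed to recombinant protein at 50, 25, 12.5 μg/mL final in triplicate, 37 °C shaking at 175 rpm. OD600 read every 30 min; MIC is lowest concentration showing no growth.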

For a further assay, the system named is Citrobacter diversus. Briefly: MIC against Gram-negative bacteria: Citrobacter diversus. The note with it: 5×10^5 CFU/mL. In outline:
as §1

The mark [1] stands for this setting: Proteus mirabilis, 96-well plate, 37° C., 10 h.
The mark [2] stands for this setting: E. coli BL21, 96-well plate, 37° C., 10 h.
Setting [3] is: Enterobacter cloacae, 96-well plate, 37° C., 10 h.
Setting [4] is: Pseudomonas aeruginosa, 96-well plate, 37° C., 10 h.
[5] abbreviates: Moraxella catarrhalis, 96-well plate, 37° C., 10 h.
Where [6] appears, read: Proteus vulgaris, 96-well plate, 37° C., 10 h.
Setting [7] is: Klebsiella pneumonia, 96-well plate, 37° C., 10 h.
[8] abbreviates: Serratia marcescens, 96-well plate, 37° C., 10 h.
Setting [9] is: Aeromonas hydrophila, 96-well plate, 37° C., 10 h.
The mark [10] stands for this setting: Citrobacter diversus, 96-well plate, 37° C., 10 h.
The mark [11] stands for this setting: E. coli BL21, 10 h cultivation at 37° C.

On to “PRT1222 (SVNYCECNPCFNGGSCQSGVDSYYCHCPFGVFGKHCE; listed as Homo sapiens)”, for which the “MIC against P. mirabilis” value with Proteus mirabilis (setting [1]) turned out to be 50 µg/mL. Besides, the “MIC against E. coli BL21” value in the assay on E. coli BL21 (setting [2]) came to 25 µg/mL. The “MIC against E. cloacae” value against Enterobacter cloacae (setting [3]) stood at 25 µg/mL. Further, in the assay with Pseudomonas aeruginosa (setting [4]), the “MIC against P. aeruginosa” value was 50 µg/mL. Further, the “MIC against M. catarrhalis” value in the assay on Moraxella catarrhalis (setting [5]) amounted to 25 µg/mL. In the assay with Proteus vulgaris (setting [6]), the “MIC against P. vulgaris” value was 25 µg/mL. Besides, the “MIC against K. pneumonia” value in the assay with Klebsiella pneumonia (setting [7]) is 12.5 µg/mL. In the assay with Serratia marcescens (setting [8]), the “MIC against S. marcescens” value is 12.5 µg/mL. The “MIC against A. hydrophila” value in the assay on Aeromonas hydrophila (setting [9]) amounted to 50 µg/mL. In the assay on E. coli DH5α, the MIC came to 12.5 µg/mL. Moreover, the “MIC against C. diversus” value against Citrobacter diversus (setting [10]) is 12.5 µg/mL.

As to “PRT791 (SQECQCHNGGTCDAATGQCHCSPGYTGERCQ; listed as Homo sapiens)”, the “MIC (μg/mL) P. mirabilis” value with Proteus mirabilis (P. mirabilis, 10 h cultivation at 37° C.) was 25 µg/mL. Also, the “MIC (μg/mL) E. coli BL21” value against E. coli BL21 (setting [11]) is 12.5 µg/mL. Besides, the “MIC (μg/mL) E. cloacae” value against Enterobacter cloacae (E. cloacae, 10 h cultivation at 37° C.) was determined as 50 µg/mL. In addition, the “MIC (μg/mL) P. aeruginosa” value in the assay on Pseudomonas aeruginosa (P. aeruginosa, 10 h cultivation at 37° C.) stood at 50 µg/mL. Moreover, the “MIC (μg/mL) M. catarrhalis” value with Moraxella catarrhalis (M. catarrhalis, 10 h cultivation at 37° C.) is 50 µg/mL. Also, the “MIC (μg/mL) P. vulgaris” value in the assay on Proteus vulgaris (P. vulgaris, 10 h cultivation at 37° C.) amounted to 12.5 µg/mL. Further, in the assay with Klebsiella pneumonia (K. pneumonia, 10 h cultivation at 37° C.), the “MIC (μg/mL) K. pneumonia” value turned out to be 12.5 µg/mL. Also, in the assay on Serratia marcescens (S. marcescens, 10 h cultivation at 37° C.), the “MIC (μg/mL) S. marcescens” value came to 12.5 µg/mL. Besides, the “MIC (μg/mL) A. hydrophila” value with Aeromonas hydrophila (A. hydrophila, 10 h cultivation at 37° C.) came out at 12.5 µg/mL. For the same substance, the MIC with E. coli DH5α worked out at 50 µg/mL. Moreover, in the assay on Citrobacter diversus (C. diversus, 10 h cultivation at 37° C.), the “MIC (μg/mL) C. diversus” value stood at 25 µg/mL.

As to “PRT16 (EKSPCQPNPCHGAAPCRVLPEGGAQCECPLGREGTFCQ; listed as Homo sapiens)”, the “MIC (μg/mL) P. mirabilis” value against Proteus mirabilis (setting [1]) worked out at 50 µg/mL. The “MIC (μg/mL) E. coli BL21” value in the assay on E. coli BL21 (setting [2]) is 12.5 µg/mL. Also, the “MIC (μg/mL) E. cloacae” value in the assay with Enterobacter cloacae (setting [3]) is 12.5 µg/mL. Moreover, in the assay on Pseudomonas aeruginosa (setting [4]), the “MIC (μg/mL) P. aeruginosa” value came to 25 µg/mL. Moreover, in the assay on Moraxella catarrhalis (setting [5]), the “MIC (μg/mL) M. catarrhalis” value stood at 12.5 µg/mL. Further, the “MIC (μg/mL) P. vulgaris” value in the assay on Proteus vulgaris (setting [6]) was 25 µg/mL. For the same substance, the “MIC (μg/mL) K. pneumonia” value against Klebsiella pneumonia (setting [7]) is 12.5 µg/mL. In the assay with Serratia marcescens (setting [8]), the “MIC (μg/mL) S. marcescens” value came out at 25 µg/mL. Moreover, in the assay with Aeromonas hydrophila (setting [9]), the “MIC (μg/mL) A. hydrophila” value was 50 µg/mL. The substance also had an MIC against E. coli DH5α of 12.5 µg/mL. The “MIC (μg/mL) C. diversus” value in the assay with Citrobacter diversus (setting [10]) is 25 µg/mL.

On to “PRT1466 (CSCHTTGAVNHICNSLTGQCVCQDASIAGQRCDQCKDHYFGFDPQTGRCQP; listed as Homo sapiens)”, for which the “MIC against P. mirabilis” value in the assay on Proteus mirabilis (Proteus mirabilis, 10 h cultivation at 37° C.) was 25 µg/mL. Besides, the “MIC against E. coli BL21” value in the assay with E. coli BL21 (setting [11]) is 25 µg/mL. Also, the “MIC against E. cloacae” value in the assay with Enterobacter cloacae (Enterobacter cloacae, 10 h cultivation at 37° C.) was found to be 12.5 µg/mL. In the assay on Pseudomonas aeruginosa (Pseudomonas aeruginosa, 10 h cultivation at 37° C.), the “MIC against P. aeruginosa” value turned out to be 12.5 µg/mL. Further, the “MIC against M. catarrhalis” value against Moraxella catarrhalis (Moraxella catarrhalis, 10 h cultivation at 37° C.) amounted to 50 µg/mL. Moreover, the “MIC against P. vulgaris” value in the assay with Proteus vulgaris (Proteus vulgaris, 10 h cultivation at 37° C.) turned out to be 12.5 µg/mL. Also, the “MIC against K. pneumonia” value in the assay on Klebsiella pneumonia (Klebsiella pneumonia, 10 h cultivation at 37° C.) amounted to 50 µg/mL. Besides, the “MIC against S. marcescens” value against Serratia marcescens (Serratia marcescens, 10 h cultivation at 37° C.) came out at 25 µg/mL. The “MIC against A. hydrophila” value against Aeromonas hydrophila (Aeromonas hydrophila, 10 h cultivation at 37° C.) was found to be 50 µg/mL. The substance also had an MIC in the assay on E. coli DH5α of 50 µg/mL. Further, the “MIC against C. diversus” value in the assay on Citrobacter diversus (Citrobacter diversus, 10 h cultivation at 37° C.) stood at 12.5 µg/mL.

On to “PRT469 (NCSTTCFNGGTCFYPGKCICPPGLEGEQCE; listed as Homo sapiens)”, for which the “MIC against P. mirabilis” value with Proteus mirabilis (96-well plate, 37° C., 10 h) was 12.5 µg/mL. The “MIC against E. coli BL21” value against E. coli BL21 (96-well plate, 37° C., 10 h) came out at 25 µg/mL. The “MIC against E. cloacae” value against Enterobacter cloacae (96-well plate, 37° C., 10 h) is 50 µg/mL. Further, the “MIC against P. aeruginosa” value in the assay on Pseudomonas aeruginosa (96-well plate, 37° C., 10 h) was determined as 12.5 µg/mL. The “MIC against M. catarrhalis” value against Moraxella catarrhalis (96-well plate, 37° C., 10 h) amounted to 50 µg/mL. The “MIC against P. vulgaris” value against Proteus vulgaris (96-well plate, 37° C., 10 h) came out at 50 µg/mL. For the same substance, the “MIC against K. pneumonia” value in the assay with Klebsiella pneumonia (96-well plate, 37° C., 10 h) worked out at 25 µg/mL. Moreover, the “MIC against S. marcescens” value in the assay with Serratia marcescens (96-well plate, 37° C., 10 h) amounted to 12.5 µg/mL. Further, the “MIC against A. hydrophila” value against Aeromonas hydrophila (96-well plate, 37° C., 10 h) is 25 µg/mL. In the assay on E. coli DH5α, this substance yielded an MIC of 12.5 µg/mL. Further, the “MIC against C. diversus” value against Citrobacter diversus (96-well plate, 37° C., 10 h) was determined as 12.5 µg/mL.
